Data as given in patent US20020147136A1, “Compounds for targeting endothelial cells, compositions containing the same and methods for their use” (priority 2000, published 2002).
pIC50: −log10 of the molar value. Residues, ends and D or L forms follow the SMILES beside them.

Experiments:
[1] = tested on: Human aortic endothelial cells (HAEC); assay: TKPPR-conjugated fluorescent bead binding to HAEC, static; type: cell-based
Procedure: Human aortic endothelial cells (HAEC) from Biowhittaker were grown as monolayers in EGM-MV medium from Biowhittaker according to the supplier's instructions.
Briefly, a frozen cryovial of cells (500,000 cells in about 1 mL) was thawed for 2-3 minutes in a 37° C. water bath and cells were seeded into a T-75 flask coated with collagen I (commercially available) containing 15 mL EGM-MV of medium pre-equilibrated with 5% CO2 atmosphere. Cells were incubated in a standard tissue culture incubator at 37° C. HAEC were subcultured for up to 3 additional passages, using the following protocol:
For binding studies and characterization, pelleted cells were diluted to a concentration of 16,560 cells per mL, and 0.5 mL was seeded into each well of an 8-well chamber slide (Collagen I-coated, Becton Dickinson) to generate a seeding density of 12,000 cells/cm^2. Cells seeded into chamber slides were used for assays after 7 to 10 days, and were not further propagated.
TKPPR (see preparation described in the Example 1) was attached to red fluorescent carboxylate-modified FluoSpheres™ (Molecular Probes), which are 2.0 μm microspheres provided at 3.9×10^9 particles/mL of distilled water. 1.0 mg TKPPR was combined with 0.5 mLof 50 mM MES buffer (2-[N-Morpholino]ethanesulfonic acid, (commercially available), pH 6.0 and 0.2 mL FluoSpheres (7.8×10^8 spheres) in a 1.5 mL Eppendorf snap top, polypropylene centrifuge tube and rotated for 30 min at room temperature (RT). Then 2.8 mg EDAC (1-ethyl-3-(3-dimethylaminopropyl)carbodiimide hydrochloride, (commercially available) in 0.025 mL MES was added and the tube was rotated for 2 h at RT. Following the addition of 0.005 mL 1 N NaOH and 5.7 mg glycine in 0.025 mL MES, the tube was rotated for 30 min more at RT. The beads were then washed by employing three cycles of centrifugation at 14,000 rpm (20,800× g) in an Eppendorf 5417R centrifuge for 15 min, discarding the resulting supernatant, and resuspending in D-PBS. Storage was at 4° C. in 0.4 mL DPBS containing 0.05% NaN3 (final bead concentration was about 1.95×10^9/mL).
Final bead concentration was 1.95×10^7/mL. […]
Bead binding and localization was assessed at 200× magnification using the same microscopy equipment as described above. […] Finally, the processed images were inverted into black on a white background using Scion Image software (version beta 3b) and the integrated density was measured with the whole field selected.
The incubation time was decreased to 15 min on an orbital shaker, and the washes (3) were carried out using D-PBS containing 0.1% Tween 20 (Sigma). […] TKPPR-bead binding was quantitated in three fields, the other bead types were quantitated in one field only. Bound beads were quantitated by manual counting.

[2] = tested on: Rabbit aortic endothelial cells (RAEC); assay: Microbubble binding to RAEC in static culture; type: cell-based; settings: free TKPPR 100 μM; 5% bubbles (Composition I of Example 5)
Procedure: Rabbit aortic endothelial cells (RAEC) from Biowhittaker (Cat No. AC-7018, lot 9CC086 from a custom isolation) were obtained frozen on dry ice and stored in liquid nitrogen until thawing. RAEC were cultured and used in bubble binding assays exactly as HAEC (described above), except that EGM2-MV medium (Biowhittaker Cat No. CC-3202) was substituted for EGM-MV.

KDR/FIk-1 receptor = assay: Inhibition of phospho-tyrosine activation of KDR by VEGF in HUVEC; type: cell-based, human; settings: 200 μM
Procedure: The ability of various compositions comprising TKPPR monomers or multimers to inhibit phospho-tyrosine activation of the KDR/FIk-1 receptor by VEGF was evaluated using HUVECs. Nine 100 mm confluent dishes of cultured HUVEC cells were serum starved overnight in basal (EBM) medium without any additives. The next morning the plates were divided into three groups as follows:
1. 3 Plates had their medium changed to fresh EBM medium with no additions.
After 5 minutes at 37° C. the dishes were all drained and quickly washed 3 times with cold D-PBS with Ca and Mg (Life Technologies). Lysates were prepared from each treatment group using Triton X-100 lysis buffer (20 mM Tris pH 8.0, 137 mM NaCl, 10% glycerol, 1% Triton X-100, 2 mM EDTA Supplemented with 1 mM PMSF, […] Leupeptin and Aprotinin, 1 mM sodium orthovanadate, 50 mM sodium pyrophosphate, 100 mM sodium fluoride.) The pooled lysates from each group were precleared using Protein A beads from Sigma then incubated overnight with anti-KDR antibody (Sc-504 from Santa Cruz Biotech). The immune complexes were brought down by adding fresh Protein A beads. […] The intensity of phosphorylated (active) KDR for each treatment group was determined from the PY-20 blot then normalized to the total amount of KDR present as determined by re-probing with anti-KDR (sc-315).

[3] = tested on: Human Umbilical Vein Endothelial Cells (HUVECS)
Procedure: The ability of compositions comprising a TKPPR monomer and a TKPPR multimer to inhibit ^125I-VEGF binding to endothelial cells was evaluated using HUVECs.

effect on the ability of VEGF to activate KDR (KDR/FIk-1 receptor): no effect
SMILES: CC(O)C(N)C(=O)NC(CCCCN)C(=O)N1CCCC1C(=O)N1CCCC1C(=O)NC(CCCNC(=N)N)C(=O)O [TKPPR, L-Arginine, L-threonyl-L-lysyl-L-prolyl-L-prolyl] (H-TKPPR-OH; configuration not given here)
Integrated density of bound beads ([1]; Experiment 1, 1.95×10^7 beads/mL, 30 min, HAEC monolayer): 229.97 arbitrary units
Number of bound beads ([1]; Experiment 2, 4.9×10^6 beads/mL, 15 min, manual counting, TKPPR average of three fields, others one field): 74, 103, 72 (ave. 83)
RAEC bubbles bound [2]: 21
pIC50 [3]: 3.60
